Values of other authors in patent US20030109488A1, “Methods for treating dry eye” (Alcon, Inc., priority 2001, published 2003).

System: human conjunctival epithelial cells
Conditions: background statement, no data given

Compound: CCCCC[C@H](O)/C=C/C=C\C/C=C\C/C=C\CCCC(=O)O [15-HETE]
- secretion of mucin-1 (MUC-1): increase the secretion of mucin-1 (MUC-1)
